Reference: ChEMBL document CHEMBL1156893, “Structure-activity relationships amongst 4-position quinoline methanol antimalarials that inhibit the growth of drug sensitive and resistant strains of Plasmodium falciparum” (Bioorg Med Chem Lett, 2010)
In brackets after ≈: the same amount, converted by molar mass.

What was measured:
Plasmodium falciparum [1] = assay: Antimalarial activity against Plasmodium falciparum TM90C2A; format: functional, organism-based
Plasmodium falciparum [2] = assay: Antimalarial activity against chloroquine-resistant and mefloquine-sensitive Plasmodium falciparum W2; format: functional, organism-based
Plasmodium falciparum [3] = assay: Antimalarial activity against chloroquine, pyrimethamine and mefloquine-resistant Plasmodium falciparum TM1C235; format: functional, organism-based
[4] = Half life in mouse liver microsomes; format: ADME, Microsome
Plasmodium falciparum [5] = assay: Antimalarial activity against chloroquine and mefloquine-sensitive Plasmodium falciparum D6; format: functional
[6] = Apparent permeability from apical to basolateral side of MDCK cell monolayer expressing MDR1; format: ADME, cell-based, Canis lupus familiaris; conditions: dog
Plasmodium berghei = assay: Antimalarial activity against Plasmodium berghei infected in ICR mice (Mus musculus) assessed as delay in mortality at 160 mg/kg, perorally for 3 days; format: functional, organism-based; parameters: dose 160 mg/kg
[7] = Cytotoxicity against mouse RAW264.7 cells; format: cell-based; conditions: read-out: LC50 (the source's name)

Row | Compound | IC90 (Plasmodium falciparum [1]) | IC90 (Plasmodium falciparum [2]) | IC90 (Plasmodium falciparum [3]) | half-life [4] | IC90 (Plasmodium falciparum [5]) | Papp A→B [6] | survival time (Plasmodium berghei) | CC50 [7] | IC50 (Plasmodium falciparum [1]) | IC50 (Plasmodium falciparum [2]) | IC50 (Plasmodium falciparum [3])
1 | OC(Cn1cnc2ccccc21)c1cc(C(F)(F)F)nc2c(C(F)(F)F)cccc12 (stereo not given) | 0.45 µg/mL (≈ 1.06 µM) | 0.41 µg/mL (≈ 0.964 µM) | 0.48 µg/mL (≈ 1.13 µM) | 4 min | 0.12 µg/mL (≈ 0.282 µM) | – | – | – | – | – | –
2 | OC(CNCCNCc1ccccc1)c1cc(C(F)(F)F)nc2c(C(F)(F)F)cccc12 (stereo not given) | – | 0.029 µg/mL (≈ 0.0634 µM) | – | – | 0.006 µg/mL (≈ 0.0131 µM) | 8.4 ×10⁻⁶ cm/s | 10 days | 8.28 µg/mL (≈ 18.1 µM) | – | – | –
3 | CCCCCCC(O)c1cc(C(F)(F)F)nc2c(C(F)(F)F)cccc12 (stereo not given) | – | – | – | – | > 0.5 µg/mL | – | – | – | > 0.5 µg/mL | > 0.5 µg/mL | > 0.5 µg/mL
4 | CCCCOCC(O)c1cc(C(F)(F)F)nc2c(C(F)(F)F)cccc12 (stereo not given) | – | – | – | – | > 0.5 µg/mL | – | – | – | > 0.5 µg/mL | > 0.5 µg/mL | > 0.5 µg/mL
5 | NCC(O)c1cc(C(F)(F)F)nc2c(C(F)(F)F)cccc12 (stereo not given) | > 0.5 µg/mL | 0.4 µg/mL (≈ 1.23 µM) | > 0.5 µg/mL | – | 0.47 µg/mL (≈ 1.45 µM) | – | – | 8.07 µg/mL (≈ 24.9 µM) | – | – | –
6 | CC(C)NCC(O)c1cc(C(F)(F)F)nc2c(C(F)(F)F)cccc12 (stereo not given) | – | – | 0.023 µg/mL (≈ 0.0628 µM) | 60 min | 0.005 µg/mL (≈ 0.0136 µM) | – | – | 5.2 µg/mL (≈ 14.2 µM) | – | – | –
7 | CCCCSCC(O)c1cc(C(F)(F)F)nc2c(C(F)(F)F)cccc12 (stereo not given) | – | – | – | – | > 0.5 µg/mL | – | – | – | > 0.5 µg/mL | > 0.5 µg/mL | > 0.5 µg/mL
8 | CCN(CC)CC(O)c1cc(C(F)(F)F)nc2c(C(F)(F)F)cccc12 (stereo not given) | 0.067 µg/mL (≈ 0.176 µM) | 0.026 µg/mL (≈ 0.0684 µM) | 0.037 µg/mL (≈ 0.0973 µM) | – | 0.009 µg/mL (≈ 0.0237 µM) | – | – | 2.09 µg/mL (≈ 5.5 µM) | – | – | –
9 | OC(CNCC(F)(F)F)c1cc(C(F)(F)F)nc2c(C(F)(F)F)cccc12 (stereo not given) | – | – | – | – | > 0.5 µg/mL | – | – | 32.1 µg/mL (≈ 78.9 µM) | > 0.5 µg/mL | > 0.5 µg/mL | > 0.5 µg/mL
10 | OC(CNCc1ccccc1)c1cc(C(F)(F)F)nc2c(C(F)(F)F)cccc12 (stereo not given) | 0.151 µg/mL (≈ 0.364 µM) | 0.067 µg/mL (≈ 0.162 µM) | 0.086 µg/mL (≈ 0.208 µM) | – | 0.019 µg/mL (≈ 0.0459 µM) | – | – | 20.4 µg/mL (≈ 49.3 µM) | – | – | –
11 | COCCCNCC(O)c1cc(C(F)(F)F)nc2c(C(F)(F)F)cccc12 (stereo not given) | 0.086 µg/mL (≈ 0.217 µM) | 0.051 µg/mL (≈ 0.129 µM) | 0.084 µg/mL (≈ 0.212 µM) | – | 0.012 µg/mL (≈ 0.0303 µM) | – | – | 25.2 µg/mL (≈ 63.5 µM) | – | – | –
12 | CCCCNCC(O)c1cc(C(F)(F)F)nc2c(C(F)(F)F)cccc12 (stereo not given) | 0.012 µg/mL (≈ 0.0316 µM) | 0.001 µg/mL (≈ 0.00263 µM) | 0.009 µg/mL (≈ 0.0237 µM) | – | 0.002 µg/mL (≈ 0.00526 µM) | 25 ×10⁻⁶ cm/s | – | 2.96 µg/mL (≈ 7.8 µM) | – | – | –
13 | OC(c1cc(C(F)(F)F)nc2c(C(F)(F)F)cccc12)C1CCCCN1 (stereo not given) [MEFLOQUINE] | – | – | – | > 60 min | – | – | – | – | – | – | –
14 | OC(CNc1ccccc1)c1cc(C(F)(F)F)nc2c(C(F)(F)F)cccc12 (stereo not given) | 0.5 µg/mL (≈ 1.25 µM) | 0.377 µg/mL (≈ 0.942 µM) | 0.437 µg/mL (≈ 1.09 µM) | – | 0.484 µg/mL (≈ 1.21 µM) | – | – | 22.3 µg/mL (≈ 55.7 µM) | – | – | –
15 | CCc1nc(C)cn1CC(O)c1cc(C(F)(F)F)nc2c(C(F)(F)F)cccc12 (stereo not given) | 0.057 µg/mL (≈ 0.137 µM) | 0.043 µg/mL (≈ 0.103 µM) | 0.056 µg/mL (≈ 0.134 µM) | 22 min | 0.069 µg/mL (≈ 0.165 µM) | – | – | 25.7 µg/mL (≈ 61.6 µM) | – | – | –
16 | CC(C)c1nccn1CC(O)c1cc(C(F)(F)F)nc2c(C(F)(F)F)cccc12 (stereo not given) | – | – | – | 10 min | > 0.5 µg/mL | – | – | 50.1 µg/mL (≈ 120 µM) | > 0.5 µg/mL | > 0.5 µg/mL | > 0.5 µg/mL
17 | CCCc1nccn1CC(O)c1cc(C(F)(F)F)nc2c(C(F)(F)F)cccc12 (stereo not given) | 0.24 µg/mL (≈ 0.575 µM) | 0.32 µg/mL (≈ 0.767 µM) | 0.25 µg/mL (≈ 0.599 µM) | 8 min | 0.36 µg/mL (≈ 0.863 µM) | – | – | 50.1 µg/mL (≈ 120 µM) | – | – | –
18 | OCCNCC(O)c1cc(C(F)(F)F)nc2c(C(F)(F)F)cccc12 (stereo not given) | 0.388 µg/mL (≈ 1.05 µM) | 0.49 µg/mL (≈ 1.33 µM) | 0.485 µg/mL (≈ 1.32 µM) | – | 0.26 µg/mL (≈ 0.706 µM) | – | – | – | – | – | –
19 | CN(C)CC(O)c1cc(C(F)(F)F)nc2c(C(F)(F)F)cccc12 (stereo not given) | 0.173 µg/mL (≈ 0.491 µM) | 0.069 µg/mL (≈ 0.196 µM) | 0.079 µg/mL (≈ 0.224 µM) | – | 0.02 µg/mL (≈ 0.0568 µM) | – | – | 24.6 µg/mL (≈ 69.9 µM) | – | – | –
20 | COCCNCC(O)c1cc(C(F)(F)F)nc2c(C(F)(F)F)cccc12 (stereo not given) | 0.1 µg/mL (≈ 0.262 µM) | 0.059 µg/mL (≈ 0.154 µM) | 0.093 µg/mL (≈ 0.243 µM) | – | 0.015 µg/mL (≈ 0.0392 µM) | 32 ×10⁻⁶ cm/s | – | 38.2 µg/mL (≈ 100 µM) | – | – | –
21 | OC(CNCCF)c1cc(C(F)(F)F)nc2c(C(F)(F)F)cccc12 (stereo not given) | – | – | – | – | > 0.5 µg/mL | – | – | – | > 0.5 µg/mL | > 0.5 µg/mL | > 0.5 µg/mL
22 | CNCC(O)c1cc(C(F)(F)F)nc2c(C(F)(F)F)cccc12 (stereo not given) | – | 0.045 µg/mL (≈ 0.133 µM) | – | 60 min | 0.017 µg/mL (≈ 0.0503 µM) | 24 ×10⁻⁶ cm/s | – | 13.7 µg/mL (≈ 40.4 µM) | – | – | –
23 | Cc1nc2ccccc2n1CC(O)c1cc(C(F)(F)F)nc2c(C(F)(F)F)cccc12 (stereo not given) | 0.32 µg/mL (≈ 0.728 µM) | 0.22 µg/mL (≈ 0.501 µM) | 0.31 µg/mL (≈ 0.706 µM) | 9 min | 0.11 µg/mL (≈ 0.25 µM) | – | – | – | – | – | –
24 | OC(CNCCc1ccccc1)c1cc(C(F)(F)F)nc2c(C(F)(F)F)cccc12 (stereo not given) | 0.023 µg/mL (≈ 0.0537 µM) | 0.023 µg/mL (≈ 0.0537 µM) | 0.043 µg/mL (≈ 0.1 µM) | – | 0.019 µg/mL (≈ 0.0444 µM) | – | – | 9.64 µg/mL (≈ 22.5 µM) | – | – | –
25 | CC(C)CNCC(O)c1cc(C(F)(F)F)nc2c(C(F)(F)F)cccc12 (stereo not given) | 0.021 µg/mL (≈ 0.0552 µM) | 0.013 µg/mL (≈ 0.0342 µM) | 0.015 µg/mL (≈ 0.0394 µM) | 27 min | 0.002 µg/mL (≈ 0.00526 µM) | – | – | 27.1 µg/mL (≈ 71.3 µM) | – | – | –
26 | CCCCN(CCCC)CC(O)c1cc(C(F)(F)F)nc2c(C(F)(F)F)cccc12 (stereo not given) | 0.019 µg/mL (≈ 0.0435 µM) | 0.011 µg/mL (≈ 0.0252 µM) | 0.027 µg/mL (≈ 0.0619 µM) | – | 0.002 µg/mL (≈ 0.00458 µM) | – | – | 20.1 µg/mL (≈ 46 µM) | – | – | –
27 | CCCCCCNCC(O)c1cc(C(F)(F)F)nc2c(C(F)(F)F)cccc12 (stereo not given) | 0.481 µg/mL (≈ 1.18 µM) | 0.372 µg/mL (≈ 0.911 µM) | 0.409 µg/mL (≈ 1 µM) | – | 0.124 µg/mL (≈ 0.304 µM) | – | – | – | – | – | –
28 | OC(c1cc(C(F)(F)F)nc2c(C(F)(F)F)cccc12)C1CCCCN1 (racemic) [MEFLOQUINE] | – | – | – | – | – | 9.4 ×10⁻⁶ cm/s | – | – | – | – | –
29 | CCCN(CCC)CC(O)c1cc(C(F)(F)F)nc2c(C(F)(F)F)cccc12 (stereo not given) | 0.03 µg/mL (≈ 0.0735 µM) | 0.02 µg/mL (≈ 0.049 µM) | 0.02 µg/mL (≈ 0.049 µM) | – | 0.005 µg/mL (≈ 0.0122 µM) | – | – | 33.2 µg/mL (≈ 81.2 µM) | – | – | –
30 | CSCCCNCC(O)c1cc(C(F)(F)F)nc2c(C(F)(F)F)cccc12 (stereo not given) | – | 0.036 µg/mL (≈ 0.0873 µM) | – | – | 0.01 µg/mL (≈ 0.0242 µM) | 38 ×10⁻⁶ cm/s | – | 8.62 µg/mL (≈ 20.9 µM) | – | – | –
